SMILES strings stand for the structures.

Sequence of Transcription factor Jun (P05412 whole entry): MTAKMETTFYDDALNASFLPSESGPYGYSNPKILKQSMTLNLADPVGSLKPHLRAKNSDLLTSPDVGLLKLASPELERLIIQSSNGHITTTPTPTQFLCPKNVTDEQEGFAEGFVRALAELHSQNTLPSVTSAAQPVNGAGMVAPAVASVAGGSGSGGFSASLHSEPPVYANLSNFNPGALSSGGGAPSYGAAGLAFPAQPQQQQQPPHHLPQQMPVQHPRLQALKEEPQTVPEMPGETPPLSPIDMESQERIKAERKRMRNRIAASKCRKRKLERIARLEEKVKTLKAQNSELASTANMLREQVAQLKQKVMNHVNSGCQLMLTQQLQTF

The assay addresses Transcription factor Jun (Homo sapiens, UniProt P05412). Description: Inhibition of c-Jun.
The IC50 is the concentration that inhibits the measured activity by half. The low end stands for higher potency, the high end for lower potency. `Cc1ccc(-c2cccc3cnc(NC4CCC(O)CC4)nc23)cn1` (stereo unspecified) [4-(8-(6-methylpyridin-3-yl)quinazolin-2-ylamino)cyclohexanol] came in with an IC50 of 0.93 µM. That is a sub-micromolar value.

In turn, `Cn1cc(-c2ccc3cnc(Nc4ccc(-n5cnc(N6CCOCC6)n5)cc4)nc3c2-c2cnn(C)c2)cn1` [7,8-bis(1-methyl-1H-pyrazol-4-yl)-N-(4-(3-morpholino-1H-1,2,4-triazol-1-yl)phenyl)quinazolin-2-amine] displayed an IC50 of 0.04 µM.

As to `Cn1cc(-c2ccc3cnc(Nc4ccc(-n5cnc(-c6ccccn6)n5)cc4)nc3c2)cn1` [7-(1-methyl-1H-pyrazol-4-yl)-N-(4-(3-(pyridin-2-yl)-1H-1,2,4-triazol-1-yl)phenyl)quinazolin-2-amine], the IC50 came out at 0.29 µM.

Consider `Cn1cc(-c2ccc3cnc(Nc4ccc(-n5cnc(N6CCOCC6)n5)cc4)nc3c2-c2ccccc2)cn1` [7-(1-methyl-1H-pyrazol-4-yl)-N-(4-(3-morpholino-1H-1,2,4-triazol-1-yl)phenyl)-8-phenylquinazolin-2-amine], for which the midpoint of inhibition, the IC50, lay at 0.04 µM. This IC50 is about 7.2-fold lower than that of the compound before.

Take `Cn1cc(-c2ccc3cnc(Nc4ccc(-n5cnc(N6CCOCC6)n5)cc4)nc3c2)cn1` [7-(1-methyl-1H-pyrazol-4-yl)-N-(4-(3-morpholino-1H-1,2,4-triazol-1-yl)phenyl)quinazolin-2-amine]: the IC50 was determined as 0.31 µM.

The compound `Cn1cc(-c2cccc3cnc(Nc4ccc(-n5cnc(N6CCOCC6)n5)cc4)nc23)cn1` [8-(1-methyl-1H-pyrazol-4-yl)-N-(4-(3-morpholino-1H-1,2,4-triazol-1-yl)phenyl)quinazolin-2-amine] yielded an IC50 of 0.33 µM.

Consider `COc1ccc(-c2cccc3cnc(Nc4ccc(-n5cnc(-c6ccccn6)n5)cc4)nc23)cc1F` [8-(3-fluoro-4-methoxyphenyl)-N-(4-(3-(pyridin-2-yl)-1H-1,2,4-triazol-1-yl)phenyl)quinazolin-2-amine], for which the IC50 is 5.1 µM.

`COc1ccc(-c2cccc3cnc(Nc4ccc(-n5cnc(C)n5)cc4)nc23)cc1F` [8-(3-fluoro-4-methoxyphenyl)-N-(4-(3-methyl-1H-1,2,4-triazol-1-yl)phenyl)quinazolin-2-amine]: half-maximal inhibition (IC50) was put at 0.5 µM.

With `COc1ccc(-c2cccc3cnc(Nc4ccc(-n5cnc(N6CCOCC6)n5)cc4)nc23)cc1F` [8-(3-fluoro-4-methoxyphenyl)-N-(4-(3-morpholino-1H-1,2,4-triazol-1-yl)phenyl)quinazolin-2-amine], the IC50 is 0.25 µM.

As for `CC(C)n1cc(-c2ccc3cnc(Nc4ccc(-n5cnc(N6CCOCC6)n5)cc4)nc3c2Cl)cn1` [8-chloro-7-(1-isopropyl-1H-pyrazol-4-yl)-N-(4-(3-morpholino-1H-1,2,4-triazol-1-yl)phenyl)quinazolin-2-amine], the IC50 is 0.62 µM.

Take `Cn1cc(-c2ccc3cnc(Nc4ccc(-n5cnc(N6CCOCC6)n5)cc4)nc3c2Cl)cn1` [8-chloro-7-(1-methyl-1H-pyrazol-4-yl)-N-(4-(3-morpholino-1H-1,2,4-triazol-1-yl)phenyl)quinazolin-2-amine]: the IC50 worked out at 0.1 µM. Against the preceding compound, the IC50 is about 6.2-fold lower.

`Cn1cc(-c2ccc3cnc(Nc4ccc(-n5cnc(N6CCOCC6)n5)cc4)nc3c2C2CC2)cn1` [8-cyclopropyl-7-(1-methyl-1H-pyrazol-4-yl)-N-(4-(3-morpholino-1H-1,2,4-triazol-1-yl)phenyl)quinazolin-2-amine] gave an IC50 of 0.13 µM.

As to `COc1c(-c2cnn(C)c2)ccc2cnc(Nc3ccc(-n4cnc(N5CCOCC5)n4)cc3)nc12` [8-methoxy-7-(1-methyl-1H-pyrazol-4-yl)-N-(4-(3-morpholino-1H-1,2,4-triazol-1-yl)phenyl)quinazolin-2-amine], 0.05 µM corresponded to half-maximal inhibition (IC50).

In the case of `Cc1c(-c2cnn(C)c2)ccc2cnc(Nc3ccc(-n4cnc(N5CCOCC5)n4)cc3)nc12` [8-methyl-7-(1-methyl-1H-pyrazol-4-yl)-N-(4-(3-morpholino-1H-1,2,4-triazol-1-yl)phenyl)quinazolin-2-amine], the IC50 amounted to 0.16 µM.

The compound `Cc1ccc(-c2cccc3cnc(N[C@H]4CC[C@@H](C(=O)N5CCCC5)CC4)nc23)cn1` [((cis)-4-(8-(6-methylpyridin-3-yl)quinazolin-2-ylamino)cyclohexyl)(pyrrolidin-1-yl)methanone] showed an IC50 of 3 µM.

With `Cc1ccc(-c2ncn(-c3ccc(Nc4ncc5ccc(-c6cn[nH]c6)cc5n4)cc3)n2)cn1` [N-(4-(3-(6-methylpyridin-3-yl)-1H-1,2,4-triazol-1-yl)phenyl)-7-(1H-pyrazol-4-yl)quinazolin-2-amine], the IC50 worked out at 0.04 µM.

In the case of `Cc1ncn(-c2ccc(Nc3ncc4cccc(-c5nccs5)c4n3)cc2)n1` [N-(4-(3-methyl-1H-1,2,4-triazol-1-yl)phenyl)-8-(thiazol-2-yl)quinazolin-2-amine], the IC50 turned out to be 0.2 µM.

Compound `c1cc(-n2cnc(N3CCOCC3)n2)ccc1Nc1ncc2ccc(-c3cn[nH]c3)cc2n1` [N-(4-(3-morpholino-1H-1,2,4-triazol-1-yl)phenyl)-7-(1H-pyrazol-4-yl)quinazolin-2-amine] registered an IC50 of 0.12 µM.

As for `c1cc(-c2nccs2)c2nc(Nc3ccc(-n4cnc(N5CCOCC5)n4)cc3)ncc2c1` [N-(4-(3-morpholino-1H-1,2,4-triazol-1-yl)phenyl)-8-(thiazol-2-yl)quinazolin-2-amine], half-maximal inhibition (IC50) was put at 3 µM.

The compound `c1ccc(-c2cccc3cnc(Nc4ccc(-n5cnc(N6CCOCC6)n5)cc4)nc23)cc1` [N-(4-(3-morpholino-1H-1,2,4-triazol-1-yl)phenyl)-8-phenylquinazolin-2-amine] showed an IC50 of 1.4 µM.

As for `Cc1ccc(-c2cccc3cnc(Nc4ccc5c(c4)OCO5)nc23)cn1` [N-(benzo[d][1,3]dioxol-5-yl)-8-(6-methylpyridin-3-yl)quinazolin-2-amine], 0.63 µM corresponded to half-maximal inhibition (IC50).

The record behind these values is BindingDB's records for doi:10.1016/j.bmcl.2011.01.079 (The Scripps Research Institute, 2011).
